Test results: PMC11012124, “Synthesis of Novel Triazine-Based Chalcones and 8,9-dihydro-7H-pyrimido[4,5-b][1,4]diazepines as Potential Leads in the Search of Anticancer, Antibacterial and Antifungal Agents” (International Journal of Molecular Sciences, 2024)

Tests used:
Experiment in all cases: cells
[1] = system: CCRF-CEM; settings: Homo sapiens, 48 h; for CC50: read-out: LC50
[2] = system: HL-60(TB); settings: Homo sapiens, HL-60, 48 h; for CC50: read-out: LC50
[3] = system: K-562; settings: Homo sapiens, K562, 48 h; for GI50: K-562, 48 h; for CC50: read-out: LC50
[4] = system: SR; settings: Homo sapiens, 48 h; for CC50: read-out: LC50
[5] = system: HOP-92; settings: Homo sapiens, HOP-92, 48 h; for CC50: read-out: LC50
[6] = system: NCI-H226; settings: Homo sapiens, NCI-H226, 48 h; for CC50: read-out: LC50
[7] = system: NCI-H23; settings: Homo sapiens, NCI-H23, 48 h; for CC50: read-out: LC50
[8] = system: NCI-H460; settings: Homo sapiens, NCI-H460, 48 h; for CC50: read-out: LC50
[9] = system: SF-268; settings: Homo sapiens, SF-268, 48 h; for CC50: read-out: LC50
[10] = system: SF-295; settings: Homo sapiens, SF-295, 48 h; for CC50: read-out: LC50
[11] = system: LOX IMVI; settings: Homo sapiens, 48 h; for CC50: read-out: LC50, LOX IMVI, 48 h
[12] = system: MDA-MB-435; settings: Homo sapiens, MDA-MB-435, 48 h; for CC50: read-out: LC50
[13] = system: SK-MEL-2; settings: Homo sapiens, SK-MEL-2, 48 h; for CC50: read-out: LC50
[14] = system: SK-MEL-5; settings: Homo sapiens, SK-MEL-5, 48 h; for CC50: read-out: LC50
[15] = system: UACC-257; settings: Homo sapiens, UACC-257, 48 h; for CC50: read-out: LC50
[16] = system: IGROV1; settings: Homo sapiens, IGROV-1, 48 h; for CC50: read-out: LC50
[17] = system: OVCAR-3; settings: Homo sapiens, OVCAR-3, 48 h; for CC50: read-out: LC50
[18] = system: OVCAR-4; settings: Homo sapiens, OVCAR-4, 48 h; for CC50: read-out: LC50
[19] = system: OVCAR-5; settings: Homo sapiens, OVCAR-5, 48 h; for CC50: read-out: LC50
[20] = system: 786-0; settings: Homo sapiens, 786-0, 48 h; for CC50: read-out: LC50
[21] = system: A498; settings: Homo sapiens, A498, 48 h; for CC50: read-out: LC50
[22] = system: SN12C; settings: Homo sapiens, 48 h; for CC50: read-out: LC50
[23] = system: TK-10; settings: Homo sapiens, TK-10, 48 h; for CC50: read-out: LC50
[24] = system: MCF7; settings: Homo sapiens, MCF7, 48 h; for CC50: read-out: LC50

`CN(C)c1nc(NCCNS(=O)(=O)c2ccc(C(=O)/C=C/c3ccc(C(F)(F)F)cc3)cc2)nc(N2CCOCC2)n1` [23g] was tested. Which GI50 [1] did it give?
Its GI50 is 3.2 µM.

And the CC50 [1]?
Its CC50 is greater than 100 µM.

What about the GI50 [2] of the same compound?
The GI50 was 5.12 µM.

What about the CC50 [2] of the same compound?
The CC50 was greater than 100 µM.

What about the GI50 [3] of the same compound?
The GI50 was 3.21 µM.

What about the CC50 [3] of the same compound?
Its CC50 is greater than 100 µM.

What about the GI50 [4] of the same compound?
The GI50 was 6.31 µM.

And the CC50 [4]?
The CC50 was greater than 100 µM.

And the GI50 [5]?
The GI50 was 15.2 µM.

What about the CC50 [5] of the same compound?
Its CC50 is 65.2 µM.

And the GI50 [6]?
Its GI50 is 16.1 µM.

What about the CC50 [6] of the same compound?
The CC50 was 78.9 µM.

And the GI50 [7]?
The GI50 was 13 µM.

What about the CC50 [7] of the same compound?
The CC50 was 52.6 µM.

And the GI50 [8]?
The GI50 was 16.1 µM.

What about the CC50 [8] of the same compound?
Its CC50 is 65.6 µM.

What about the GI50 [9] of the same compound?
The GI50 was 16.3 µM.

What about the CC50 [9] of the same compound?
Its CC50 is 87.9 µM.

What about the GI50 [10] of the same compound?
The GI50 was 8.11 µM.

What about the CC50 [10] of the same compound?
The CC50 was 45.4 µM.

And the GI50 [11]?
Its GI50 is 1.68 µM.

What about the CC50 [11] of the same compound?
Its CC50 is 5.94 µM.

What about the GI50 [12] of the same compound?
The GI50 was 10.3 µM.

And the CC50 [12]?
Its CC50 is 51.1 µM.

What about the GI50 [13] of the same compound?
Its GI50 is 16.3 µM.

What about the CC50 [13] of the same compound?
The CC50 was 56.7 µM.

And the GI50 [14]?
Its GI50 is 15.8 µM.

What about the CC50 [14] of the same compound?
Its CC50 is 54.9 µM.

What about the GI50 [15] of the same compound?
The GI50 was 15.3 µM.

And the CC50 [15]?
The CC50 was 56.5 µM.

And the GI50 [16]?
Its GI50 is 1.77 µM.

What about the CC50 [16] of the same compound?
The CC50 was 6.97 µM.

What about the GI50 [17] of the same compound?
The GI50 was 16.4 µM.

And the CC50 [17]?
The CC50 was 57.3 µM.

What about the GI50 [18] of the same compound?
Its GI50 is 14.8 µM.

And the CC50 [18]?
The CC50 was 56.5 µM.

And the GI50 [19]?
The GI50 was 14.5 µM.

And the CC50 [19]?
The CC50 was 53 µM.

And the GI50 [20]?
Its GI50 is 14.5 µM.

What about the CC50 [20] of the same compound?
The CC50 was 54.9 µM.

What about the GI50 [21] of the same compound?
Its GI50 is 13.3 µM.

What about the CC50 [21] of the same compound?
The CC50 was 53 µM.

What about the GI50 [22] of the same compound?
Its GI50 is 12.5 µM.

And the CC50 [22]?
The CC50 was 50 µM.

What about the GI50 [23] of the same compound?
The GI50 was 15.5 µM.

What about the CC50 [23] of the same compound?
The CC50 was 56 µM.

What about the GI50 [24] of the same compound?
Its GI50 is 1.68 µM.

What about the CC50 [24] of the same compound?
The CC50 was 6.63 µM.

Which GI50 [1] does the source give for `CN(C)c1nc(NCCNS(=O)(=O)c2ccc(C(=O)/C=C/c3ccccc3)cc2)nc(N2CCOCC2)n1` [23a] here?
The GI50 was 4.41 µM.

What about the CC50 [1] of the same compound?
Its CC50 is greater than 100 µM.

And the GI50 [2]?
Its GI50 is 6.18 µM.

And the CC50 [2]?
Its CC50 is greater than 100 µM.

What about the GI50 [3] of the same compound?
Its GI50 is 2.19 µM.

And the CC50 [3]?
The CC50 was greater than 100 µM.

And the GI50 [4]?
The GI50 was 3.2 µM.

What about the CC50 [4] of the same compound?
Its CC50 is greater than 100 µM.

What about the GI50 [5] of the same compound?
The GI50 was 12.2 µM.

And the CC50 [5]?
The CC50 was 58 µM.

What about the GI50 [6] of the same compound?
Its GI50 is 13.5 µM.

And the CC50 [6]?
Its CC50 is 74.2 µM.

And the GI50 [7]?
Its GI50 is 16 µM.

And the CC50 [7]?
Its CC50 is 58 µM.

And the GI50 [8]?
The GI50 was 18.2 µM.

And the CC50 [8]?
Its CC50 is 80.7 µM.

What about the GI50 [9] of the same compound?
Its GI50 is 13.7 µM.

What about the CC50 [9] of the same compound?
The CC50 was 70.1 µM.

And the GI50 [10]?
The GI50 was 15.6 µM.

What about the CC50 [10] of the same compound?
The CC50 was 59.5 µM.

And the GI50 [11]?
The GI50 was 1.97 µM.

What about the CC50 [11] of the same compound?
Its CC50 is 8.68 µM.

What about the GI50 [12] of the same compound?
The GI50 was 14.7 µM.

And the CC50 [12]?
The CC50 was 54.4 µM.

And the GI50 [13]?
The GI50 was 15.3 µM.

What about the CC50 [13] of the same compound?
Its CC50 is 56.9 µM.

What about the GI50 [14] of the same compound?
The GI50 was 15.9 µM.

And the CC50 [14]?
Its CC50 is 54.3 µM.

And the GI50 [15]?
Its GI50 is 17.9 µM.

And the CC50 [15]?
The CC50 was 58.3 µM.

What about the GI50 [16] of the same compound?
The GI50 was 15.3 µM.

What about the CC50 [16] of the same compound?
The CC50 was 66.4 µM.

And the GI50 [17]?
The GI50 was 15.3 µM.

What about the CC50 [17] of the same compound?
Its CC50 is 53.4 µM.

What about the GI50 [18] of the same compound?
The GI50 was 14.3 µM.

What about the CC50 [18] of the same compound?
The CC50 was 54 µM.

And the GI50 [19]?
Its GI50 is 12.1 µM.

And the CC50 [19]?
The CC50 was 55.9 µM.

And the GI50 [20]?
Its GI50 is 14.8 µM.

What about the CC50 [20] of the same compound?
The CC50 was 57.1 µM.

What about the GI50 [21] of the same compound?
Its GI50 is 14.6 µM.

And the CC50 [21]?
The CC50 was 52.9 µM.

What about the GI50 [22] of the same compound?
Its GI50 is 14.6 µM.

What about the CC50 [22] of the same compound?
Its CC50 is 56.1 µM.

What about the GI50 [23] of the same compound?
Its GI50 is 16.4 µM.

What about the CC50 [23] of the same compound?
Its CC50 is 55.5 µM.

What about the GI50 [24] of the same compound?
Its GI50 is 3.49 µM.

And the CC50 [24]?
Its CC50 is 62 µM.
